We go through seven molecules from article PMC9846164, “Oral administration of VDAC1-derived small molecule peptides increases circulating testosterone levels in male rats” (Frontiers in Endocrinology, 2023).

In data set [1] the test system is Brown-Norway rats. In words: Oral gavage of peptides; plasma testosterone and corticosterone. Particulars: ~10 µg/kg oral, 2 hrs after gavage. It counts as in vivo, rat.
Method: All peptides were dissolved in molecular grade, sterile double distilled water to obtain a 1 mM stock solution and stored at -20°C. Peptides used for oral screenings were prepared from 1 mM peptide stock and diluted in sterile tap water in a total volume of 1 ml.
All samples were measured in duplicate according to each of the manufacturer’s instructions. Serum, plasma, or intratesticular fluid samples were diluted until controls fitted the middle of the standard curve used.
Data set [2] can be described thus: Peptide stability in plasma. It counts as in vitro ADME. Particulars: 4 µM peptide (KVSQ 12.5 µM) in 100 µl Brown-Norway rat plasma, 37°C, 1-120 minutes, methanol crash, LC-MS/MS SRM, % of 1 min level, N=3 mean ± SEM, Figure 4J. Here is the method: For peptide stability experiments, plasma from Brown-Norway rats aged 90-140 days was collected and stored at -20°C until further use. The plasma was thawed, spun at 12,000 RPM for 10 min, and kept at 4°C. 4 μM of the various peptides were incubated with 100 μL of plasma that was warmed at 37°C for 10 min before use. After 1, 15, 30, 60, 90 or 120 minutes, the plasma/peptide samples were crashed with 300 µL of 100% methanol, spun at 14,000 RPM for 10 min, and the supernatant collected. The methanol in the supernatant was evaporated and the samples were re-extracted. The final pellet was solubilized in 5 μL methanol followed by the addition of 100 μL of sterile double distilled water. The extracted samples were transferred to plastic tubes and placed in the autoloader of the mass spectrometer.
(§1) The analytical instrumentation consisted of a Thermo-Scientific ISQ Quantiva Triple Quadrupole Mass Spectrometer (QQQ), incorporating a heated electrospray ionization (HESI) source, and a Thermo-Scientific UltiMate™ 3000 UHPLC system (including, UltiMate™ 3000 RS autosampler). Analytical conditions were developed using a reference standard in a solution containing 5 µM of the corresponding peptide. The chromatography was resolved by isocratic elution of a binary solvent system incorporating (A) 0.1% Formic Acid (aq) and (B) ACN + 0.1% FA and using an Agilent Eclipse Plus™ C18 analytical column (100mm X 2.1mm ID, 1.8 µm particle). A 5µL injection volume and solvent flow rate of 150 µL/min were used. The MS/MS acquisition time was 7 min and total run time was 8.3 min/injection. The triple Quadrupole MS/MS instrumentation conditions were as follows: the HESI source voltage was 3200 V, the sheath gas […], auxilirary gas 20 L/min, sweep gas 2.0 L/min, the ion transfer temperature was 350°C, the vaporizer temperature was 350°C, the CID gas was 1.5 (mTorr) and the dwell time was 100 msec. The Q1 Resolution (FWHM) was 0.4 (unitless) and the Q3 resolution (FWHM) was 0.7 (unitless). The instrument ran in a selected reaction monitoring (SRM), positive ion detection mode at various collision energies (CE) for the following mass transitions: […]

Data set [3] is described as follows: Oral pharmacokinetics after single oral dose. Format: in vivo, rat. Conditions: Brown-Norway, rat; single oral dose 10 mg peptide in 1 ml, fasted 4 hrs, jugular plasma 5-120 minutes, LC-MS/MS, N=4 in two rounds, Figure 4K; read-out: time to peak concentration in blood (converted). Here is the method: (§2) For all oral experiments, administration via gavage began between 8:30-8:50 am with a 3-minute delay between each rat. Animals used for pharmacokinetic studies were fasted for 4 hrs before starting gavage at 1 pm with a 3-minute delay between each rat.
(§3) For oral pharmacokinetic experiments, jugular blood samples were collected following a single oral dose of 10 mg peptide in 1 ml of vehicle after 5, 15, 30, 45, 60, 90, and 120 minutes. Protein inhibitor cocktail (ROCHE, cOmplete protease inhibitors, Cat# 11697498001), which was added into the EDTA collection tubes, was used for KVSQ and RVTQ peptides. Plasma was immediately extracted, and 100 μL of plasma were crashed with 300 µL of 100% methanol, spun at 14,000 RPM for 10 min, and the supernatant harvested. Re-extraction of the precipitant and solubilization of the pellet were as described above.
as §1, with “(unitless).” for “(unitless). The instrument ran in a selected reaction monitoring (SRM), positive ion detection mode at various collision energies (CE) for the following mass transitions:”

The test system of data set [4] is Brown-Norway rats. The data set is described as follows: Oral pharmacokinetics after single oral dose. It counts as in vivo, rat. Conditions: single oral dose 10 mg in 1 ml; protease inhibitor cocktail in tubes for KVSQ and RVTQ; LC-MS/MS. The method, then:
as §2, §3
as §1, with “(unitless).” for “(unitless). The instrument ran in a selected reaction monitoring (SRM), positive ion detection mode at various collision energies (CE) for the following mass transitions:”

A short description of data set [5]: RdVTQ stability on storage (mass-spec area under the curve). Particulars: fresh vs in distilled water at 37°C for 7 - 28 days, freeze/thaw, stored at -20°C; Figure 5F. Format: physicochemical. Here is the method: as §1

Each structure is given as a SMILES string. “Also recorded” adds a separate entry of the source. Square brackets hold non-standard residues; d marks the D form. Peptide text beside a SMILES is read from it.

As for `CC[C@@H](C)[C@@H](NC(=O)[C@H](CCCCN)NC(C)=O)C(=O)N[C@H](C(=O)N[C@@H](CCC(N)=O)C(N)=O)[C@@H](C)O` [Ac-KdITQ-CONH2] (Ac-K[dI]TQ-NH2), the “average testosterone levels at ~10 µg/kg” value in the data set with Brown-Norway rats [1] was “increased, although not significantly”.
`CC[C@H](C)[C@H](NC(=O)[C@H](CCCNC(=N)N)NC(C)=O)C(=O)N[C@H](C(=O)N[C@@H](CCC(N)=O)C(=O)N[C@H](CO)C(N)=O)[C@@H](C)O` [Ac-RITQdS-CONH2] (Ac-RITQ[dS]-NH2): the “half-life in plasma (rank order)” value in data set [2] is on record as “Ac-RITQdS-CONH2 > RdVTQ > Ac-RdITQ-CONH2 > RITQ > RVTQ > KVSQ”. Moreover, the Tmax in data set [3] was around 15 min.
As to `CC[C@@H](C)[C@@H](NC(=O)[C@H](CCCNC(=N)N)NC(C)=O)C(=O)N[C@H](C(=O)N[C@@H](CCC(N)=O)C(N)=O)[C@@H](C)O` [Ac-RdITQ-CONH2] (Ac-R[dI]TQ-NH2), the “half-life in plasma (rank order)” value in data set [2] is recorded as “Ac-RITQdS-CONH2 > RdVTQ > Ac-RdITQ-CONH2 > RITQ > RVTQ > KVSQ”.
In the case of `CC(C)[C@H](NC(=O)[C@@H](N)CCCCN)C(=O)N[C@@H](CO)C(=O)N[C@@H](CCC(N)=O)C(=O)O` [KVSQ] (H-KVSQ-OH), in data set [2], the “half-life in plasma (rank order)” value was “rapid degradation; also recorded: Ac-RITQdS-CONH2 > RdVTQ > Ac-RdITQ-CONH2 > RITQ > RVTQ > KVSQ”. Further, in the data set on Brown-Norway rats [4], the “detection in rat plasma after oral dose” value is recorded as “not detected”.
`CC[C@H](C)[C@H](NC(=O)[C@@H](N)CCCNC(=N)N)C(=O)N[C@H](C(=O)N[C@@H](CCC(N)=O)C(=O)O)[C@@H](C)O` [RITQ] (H-RITQ-OH): the “half-life in plasma (rank order)” value in data set [2] is listed as “Ac-RITQdS-CONH2 > RdVTQ > Ac-RdITQ-CONH2 > RITQ > RVTQ > KVSQ”.
Turning to `CC(C)[C@H](NC(=O)[C@@H](N)CCCNC(=N)N)C(=O)N[C@H](C(=O)N[C@@H](CCC(N)=O)C(=O)O)[C@@H](C)O` [RVTQ] (H-RVTQ-OH), the “half-life in plasma (rank order)” value in data set [2] is “Ac-RITQdS-CONH2 > RdVTQ > Ac-RdITQ-CONH2 > RITQ > RVTQ > KVSQ”. Also, in the data set with Brown-Norway rats [4], the “detection in rat plasma after oral dose” value was “not detected”.
In the case of `CC(C)[C@@H](NC(=O)[C@@H](N)CCCNC(=N)N)C(=O)N[C@H](C(=O)N[C@@H](CCC(N)=O)C(=O)O)[C@@H](C)O` [RdVTQ] (H-R[dV]TQ-OH), the “half-life in plasma (rank order)” value in data set [2] was “Ac-RITQdS-CONH2 > RdVTQ > Ac-RdITQ-CONH2 > RITQ > RVTQ > KVSQ”. Moreover, the “stability (area under the curve by mass-spec)” value in data set [5] was “highly stable”.
